In patent US8722580B2, “Agent for inhibiting cytokinin signaling” (Sumitomo Chemical Company, Limited, priority 2006, dated 2014):

Tests used:
Arabidopsis thaliana = assay: Root growth-promoting activity test (Example 9); format: in vivo; conditions: main root length vs control section, 22° C., 10 days
Experimental: Enshi standard medium having the following composition (see Table 10) was prepared. To cluster tubes was dispensed each 4 μl of a solution of a chemical substance in DMSO to a final concentration of 0.001 ppm to 10 ppm, and then, was dispensed each 600 μl of the sterilized Enshi standard medium. Then the resulting solution was well mixed. In each of the cluster tubes, 10-20 seeds of Arabidopsis thaliana were sown, and cultured at 22° C. for 10 days in the light. Then, the length of main roots (average main roots) generated from the seeds of Arabidopsis thaliana was measured. An average of eight repeats was determined, and a root growth rate was determined according to the following equation.
Root growth rate (%)=(Average main root length in chemical substance-treated section)/(Average main root length in control section)×100

[1] = test system: transformed cell TM182-p415CYC1; assay: Control growth test with transformed yeast cell TM182-p415CYC1 (toxicity to yeast); format: cell-based; conditions: trans-zeatin 0.6 ppm; chemical substance 2 ppm; 30° C., 24 hours; turbidity OD 600
Experimental: (§1) The transformed cell TM182-CRE1 and the transformed cell TM182-p415CYC1 obtained in Example 6 were each inoculated in 10 ml of a DOLU+Gal medium, and preincubated at 30° C. for 18 hours to obtain a preincubation liquid for each of the transformed cells. The preincubation liquid was diluted with a DOLU+Glu medium for the transformed cell TM182-CRE1 or with a DOLU+Gal medium for the transformed cell TM182-p415CYC1 until OD600=0.1 was reached, to obtain a preincubation dilution for each of the transformed cells.
(§2) To each well of a 96-well plate was added 1 μl of a 200 ppm solution of a test substance in dimethyl sulfoxide (DMSO) to prepare an Assay plate. At the same time, as controls, only 1 μl of DMSO was added to a part of wells. An assay plate for the transformed cell TM182-CRE1 and an assay plate for the transformed cell TM182-p415CYC1 were prepared.
(§3) A 10,000 ppm solution of trans-zeatin (cytokinin) in DMSO was 50-fold diluted with a DOLU+Gul medium to 200 ppm. The 200 ppm trans-zeatin solution was added in an amount of 3/1,000 volume to each of the above-described preincubation dilution to prepare each preincubation dilution containing trans-zeatin at 0.6 ppm. The 0.6 ppm preincubation dilution was added in an amount of 100 μl to each wells of the assay plate for each transformed cell. The plates were incubated at 30° C. for 24 hours. Then, turbidity (OD 600) of each well was measured by using a plate reader. The activity of the test substance for inhibiting intracellular signaling from a plant-derived cytokinin receptor of a cell was tested by comparing the measured turbidity with the turbidity of the control well.
(§4) (Relative growth rate in test section to control section) [%]=[(Turbidity in test section)−(Turbidity in blank)]/[(Turbidity in control section)−(Turbidity in blank)]×100 (Activity of inhibiting intracellular signaling from plant-derived cytokinin receptor of cell) [%]=100−(Relative growth rate in test section to control section)
(§5) In all cases, the existing concentration of trans-zeatin was adjusted to 0.6 ppm and the existing concentration of a chemical substance was adjusted to 2 ppm.
(§6) In all cases, the existing concentration of trans-zeatin was adjusted to 0.6 ppm and the existing concentration of a chemical substance was adjusted to 2 […].

cytokinin receptor CRE1 = target: T1, cytokinin receptor CRE1 (Arabidopsis thaliana, UniProt Q9C5U0, S567G/T1018A); assay: Inhibition of intracellular signaling from plant-derived cytokinin receptor, growth of transformed yeast cell TM182-CRE1; format: cell-based; conditions: trans-zeatin 0.6 ppm, chemical substance 2 ppm; for Relative growth rate (%) in test section of test substance to control section, Transformed cell TM182-CRE1: 30° C., 24 hours, turbidity OD 600; for Activity (%) of test substance for inhibiting intracellular signaling from plant-derived cytokinin receptor of cell: = 100 − relative growth rate of TM182-CRE1
T1 construct: expressed in transfected cells; host or cells: Saccharomyces cerevisiae TM182 (sln1Δ) transformed with p415CYC-CRE1
Experimental: as §1, §2, §3, §4, §5, §6

[2] = test final concentration 0.156 ppm (concentration with highest root growth rate)
[3] = test final concentration 10 ppm (concentration with highest root growth rate)
[4] = test final concentration 2.5 ppm (concentration with highest root growth rate)
[5] = test final concentration 5 ppm (concentration with highest root growth rate)
[6] = test final concentration 0.625 ppm (concentration with highest root growth rate)

T1 sequence (Q9C5U0 24-1080 S567G/T1018A): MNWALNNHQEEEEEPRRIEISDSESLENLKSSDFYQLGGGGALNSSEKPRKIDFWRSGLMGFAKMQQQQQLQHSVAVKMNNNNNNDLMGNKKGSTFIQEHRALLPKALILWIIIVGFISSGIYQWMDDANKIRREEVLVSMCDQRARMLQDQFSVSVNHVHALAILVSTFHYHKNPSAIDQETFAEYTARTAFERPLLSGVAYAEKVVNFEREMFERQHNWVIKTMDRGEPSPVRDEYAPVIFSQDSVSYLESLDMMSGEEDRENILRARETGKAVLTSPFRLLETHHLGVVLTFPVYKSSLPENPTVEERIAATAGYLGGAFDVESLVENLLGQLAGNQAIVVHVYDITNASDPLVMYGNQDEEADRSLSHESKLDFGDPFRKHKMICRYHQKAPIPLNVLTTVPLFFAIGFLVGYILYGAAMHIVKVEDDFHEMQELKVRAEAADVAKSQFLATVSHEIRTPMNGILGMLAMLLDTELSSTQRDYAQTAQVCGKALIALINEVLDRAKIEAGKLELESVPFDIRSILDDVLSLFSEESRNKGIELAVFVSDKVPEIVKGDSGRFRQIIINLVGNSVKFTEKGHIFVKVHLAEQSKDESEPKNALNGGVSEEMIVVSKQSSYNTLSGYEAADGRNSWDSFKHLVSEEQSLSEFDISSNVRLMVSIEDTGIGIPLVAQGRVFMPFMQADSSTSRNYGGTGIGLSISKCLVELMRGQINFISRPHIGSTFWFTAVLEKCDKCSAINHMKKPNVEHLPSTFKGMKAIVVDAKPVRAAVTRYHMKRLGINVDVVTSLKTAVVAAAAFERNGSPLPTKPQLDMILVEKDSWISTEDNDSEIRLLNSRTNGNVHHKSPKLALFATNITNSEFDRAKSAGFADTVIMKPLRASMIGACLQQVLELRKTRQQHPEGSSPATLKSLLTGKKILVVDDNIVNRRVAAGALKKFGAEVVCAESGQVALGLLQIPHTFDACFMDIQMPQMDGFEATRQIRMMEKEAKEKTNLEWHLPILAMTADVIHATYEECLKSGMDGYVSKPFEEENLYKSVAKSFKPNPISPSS

Row | SMILES | Relative growth rate (%) in test section of test substance to control section, Transformed cell TM182-p415CYC1 [1] | Relative growth rate (%) in test section of test substance to control section, Transformed cell TM182-CRE1 (cytokinin receptor CRE1) | Activity (%) of test substance for inhibiting intracellular signaling from plant-derived cytokinin receptor of cell (cytokinin receptor CRE1) | other results
1 | Clc1cccc(-c2nc(Cl)nc3ccc(Cl)cc23)c1 [Ia1-14] | – | – | – | Root growth-promoting activity (root growth rate) (Arabidopsis thaliana; [2]): 129.3%
2 | CN(C)c1nc(-c2ccccc2)c2cc(Cl)ccc2n1 [Ic3-25] | 122.0% | 6.0% | 94.0% | Root growth-promoting activity (root growth rate) (Arabidopsis thaliana; [3]): 140.0%
3 | COc1ccc2nc(NCCCO)nc(-c3ccccc3)c2c1 [Ic8-1] | – | – | – | Root growth-promoting activity (root growth rate) (Arabidopsis thaliana; [3]): 162.1%
4 | OCCCNc1nc(-c2ccccc2)c2cc(F)ccc2n1 [Ic2-1] | 124.6% | 2.8% | 97.2% | Root growth-promoting activity (root growth rate) (Arabidopsis thaliana; [4]): 127.4%
5 | Clc1nc(-c2ccccc2)c2c(Cl)cccc2n1 [Ia1-1] | – | – | – | Root growth-promoting activity (root growth rate) (Arabidopsis thaliana; [5]): 133.3%
6 | N=C(N)Nc1nc(-c2ccccc2)c2cc(Cl)ccc2n1 [Ic3-36] | – | – | – | Root growth-promoting activity (root growth rate) (Arabidopsis thaliana; [4]): 123.1%
7 | NC(=O)CNc1nc(-c2ccccc2)c2cc(Cl)ccc2n1 [Ic3-31] | – | – | – | Root growth-promoting activity (root growth rate) (Arabidopsis thaliana; [3]): 142.2%
8 | NCCOc1nc(-c2ccccc2)c2cc(Cl)ccc2n1 [Id3-1, 2-(2-aminoethoxy)-6-chloro-4-phenylquinazotine] | 112.5% | 2.1% | 97.9% | –
9 | NNc1nc(-c2ccccc2)c2cc(Cl)ccc2n1 [Ic3-20] | 86.5% | 5.0% | 95.0% | Root growth-promoting activity (root growth rate) (Arabidopsis thaliana; [3]): 137.8%
10 | CNc1nc(-c2ccccc2)c2cc(Cl)ccc2n1 [Ic3-23] | 108.1% | 4.1% | 95.9% | Root growth-promoting activity (root growth rate) (Arabidopsis thaliana; [3]): 150.0%
11 | OCCCNc1nc(-c2ccccc2)c2cc(Br)ccc2n1 [Ic4-2] | 109.3% | 0.9% | 99.1% | –
12 | Fc1ccc2nc(Cl)nc(-c3ccccc3)c2c1 [Ia1-2] | – | – | – | Root growth-promoting activity (root growth rate) (Arabidopsis thaliana; [3]): 139.7%
13 | Cc1ccc2nc(NCCCO)nc(-c3ccccc3)c2c1 [Ic5-5] | 126.3% | 7.2% | 92.8% | Root growth-promoting activity (root growth rate) (Arabidopsis thaliana; [4]): 157.8%
14 | N#CCNc1nc(-c2ccccc2)c2cc(Cl)ccc2n1 [Ic3-26] | 110.7% | 5.3% | 94.7% | Root growth-promoting activity (root growth rate) (Arabidopsis thaliana; [5]): 136.4%
15 | O=[N+]([O-])c1ccc2nc(Cl)nc(-c3ccccc3)c2c1 [Ia1-7] | 78.8% | 1.2% | 98.8% | –
16 | FC(F)(F)c1ccc2nc(Cl)nc(-c3ccccc3)c2c1 [Ia1-6] | – | – | – | Root growth-promoting activity (root growth rate) (Arabidopsis thaliana; [6]): 126.9%
17 | CCOCCNc1nc(-c2ccccc2)c2cc(Cl)ccc2n1 [Ic3-45] | 98.7% | 0.8% | 99.2% | –
18 | N#CCCNc1nc(-c2ccccc2)c2cc(Cl)ccc2n1 [Ic3-34] | 118.5% | 0.2% | 99.8% | –
19 | OCCNc1nc(-c2ccccc2)c2cc(Br)ccc2n1 [Ic4-1] | 95.0% | 4.6% | 95.4% | –
20 | O=Cc1nc(-c2ccccc2Cl)c2cc(Br)ccc2n1 [Ib4-1] | 110.9% | 8.7% | 91.3% | –
21 | CN(C)CCNc1nc(-c2ccccc2)c2cc(Cl)ccc2n1 [Ic3-21] | 121.6% | 5.0% | 95.0% | Root growth-promoting activity (root growth rate) (Arabidopsis thaliana; [4]): 131.7%
22 | COCCN(C)c1nc(-c2ccccc2)c2cc(Cl)ccc2n1 [Ic3-9] | 122.0% | 1.5% | 98.5% | –
23 | NCCSc1nc(-c2ccccc2)c2cc(Cl)ccc2n1 [Ie3-2] | – | – | – | Root growth-promoting activity (root growth rate) (Arabidopsis thaliana; [3]): 147.6%
24 | C#CCNc1nc(-c2ccccc2)c2cc(Cl)ccc2n1 [Ic3-30] | 108.9% | 2.2% | 97.8% | –
25 | Nc1nc(-c2ccccc2)c2cc(Cl)ccc2n1 [Ic3-19] | 102.7% | 2.4% | 97.6% | Root growth-promoting activity (root growth rate) (Arabidopsis thaliana; test final concentration 1.25 ppm (concentration with highest root growth rate)): 155.6%
26 | CN(CCO)c1nc(-c2ccccc2)c2cc(Cl)ccc2n1 [Ic3-6] | 114.6% | 2.8% | 97.2% | Root growth-promoting activity (root growth rate) (Arabidopsis thaliana; [6]): 122.4%
27 | NCCCCNc1nc(-c2ccccc2)c2cc(Cl)ccc2n1 [Ic3-22] | 110.6% | 4.9% | 95.1% | Root growth-promoting activity (root growth rate) (Arabidopsis thaliana; [2]): 129.3%
